# Data reported in patent US20170015979A1 (Instituto Tecnológico y de Estudios Superiores de Monterrey, priority 2015, published 2017).
# Values joined by “and” are separate entries in the source; they are usually repeats but may differ in a detail not shown here. Equal values may be shown once. Read-outs that look alike come from different tables or passages of the source.
# Assays:
# [1] = test system: Jalapeño hypocotyl, epicotyl and shoot tip tissues; experiment: Sensitivity of Jalapeño explants; format: cell-based; details: 200 μg/mL; initially evaluated after 15 days
# [2] = test system: N. benthamiana leaf explants; experiment: Killing curve for tobacco leaf explants; format: cell-based; details: for explants exhibiting necrosis: 200 μg/mL, after 7 days, MS solid medium; for shoot induction observed (share of plates): after 30 days
# Text: FIG. 6. Doxycycline killing curve for N. benthamiana leaf explants.
# Pichia pastoris = experiment: Yeast sensitivity on YPGE agar; format: cell-based; details: 10^6 cells plated
# Method: (§1) Example 4. […] From a single overnight grown colony of each yeast strain, 25 mL of yeast extract-peptone-dextrose (YPD) broth were inoculated and grown for 16 hours at 30° C. and 150 rpm.
# Kluyvermyces lactis = experiment: Yeast sensitivity on YPGE agar; format: cell-based
# Method: as §1
# [3] = test system: Saccharomyces cerevisiae ATCC 44774; experiment: Yeast sensitivity on YPGE agar; format: cell-based
# Method: as §1
# Kluyveromyces marxianus = experiment: Yeast sensitivity on YPGE agar; format: cell-based
# Method: as §1
# [4] = test system: C. reinhardtii strain CC-849
# Method: Glass bead transformation C. reinhardtii strain CC-849 was transformed with supercoiled plasmid DNA of Atetx, Btetx, pKS-aphVIII or pSP124S (Table 4) by the glass bead method. Briefly, the algae were grown at 25° C. with a 18/6 (light/dark) photoperiod in TAP media to mid-log phase (1-2×10^6 cells/mL), the cells were harvested by centrifugation 5 min. at 5000 g, the growth medium was removed and fresh TAP was added to achieve a cell concentration of 2×10^8 cells/mL. 300 μL of the cell suspension were placed in a 1.5 mL centrifuge tube containing 0.3 g of sterile 0.4-0.6 mm diameter glass beads (Sigma, St. Louis, Mo.) and 1×10^−12 mols of the desired plasmid DNA. The cell/DNA/glass bead suspensions were vortexed 15 s at maximum power in a VWR mini vortex. The cells were transferred to a glass tube with 5 mL of fresh TAP media and incubated at 25° C. overnight with a 8/6 (light/dark) photoperiod. After 14 hours the cells were concentrated by centrifugation at 5,000 g for 15 minutes and resuspended in TAP media to yield either 3×10^7 cells/mL of pKS-aphVIII and pSP124S transformants and 2.5×10^6, 5×10^6, 1×10^7 or 3×10^7 cells/mL for tetx transformants. […] When colonies appeared, they were streaked on to selective TAP agar plates.
# C. reinhardtii strain CC-849 was transformed with supercoiled plasmid DNA of AtetX and BtetX, by the glass bead method. […]
# [5] = 10^5 cells plated, 2 days of incubation
SMILES,explants exhibiting necrosis [1] [%],explants exhibiting necrosis [2] [%],concentration at which growth was inhibited (Pichia pastoris) [µg/mL],concentration at which growth was inhibited (Kluyvermyces lactis; 10^6 cells plated),concentration at which growth was inhibited (Kluyvermyces lactis; 10^7 cells plated) [µg/mL],concentration at which growth was inhibited ([3]; 10^5 cells plated) [µg/mL],concentration at which growth was inhibited ([3]; 10^7 cells plated) [µg/mL],concentration at which growth was inhibited (Kluyveromyces marxianus; 10^6 cells plated),concentration at which growth was inhibited (Kluyveromyces marxianus; 10^7 cells plated) [µg/mL],decrease of number of positive colonies compared to 15 μg/mL ([4]; tetracycline 25 μg/mL for selection of primary transformants),decrease of number of positive colonies compared to 15 μg/mL ([4]; tetracycline 50 μg/mL for selection of primary transformants),shoot induction observed (share of plates) ([2]; 15 μg/mL) [%],shoot induction observed (share of plates) ([2]; 25 μg/mL) [%],concentration at which growth was inhibited (Kluyvermyces lactis; [5]),"concentration at which growth was inhibited ([3]; 2 days of incubation, cell number not clearly stated)",concentration at which growth was inhibited (Kluyveromyces marxianus; [5]) [µg/mL]
C[C@H]1c2cccc(O)c2C(=O)C2=C(O)[C@]3(O)C(=O)C(C(N)=O)=C(O)[C@@H](N(C)C)[C@@H]3[C@@H](O)[C@@H]21 [doxycycline],100,100,1000,675 µg/mL and 1000 µg/mL,1000,1000,1000,675 µg/mL and 1000 µg/mL,1000,,,,,,,
"CN(C)[C@@H]1C(O)=C(C(N)=O)C(=O)[C@@]2(O)C(O)=C3C(=O)c4c(O)cccc4[C@@](C)(O)[C@H]3C[C@@H]12 [tetracycline, Tetracycline]",100,100,,,,,,1000 µg/mL,,approximately 75%,approximately 75%,50,50,750 µg/mL and 1000 µg/mL,500 µg/mL and 750 µg/mL and 1000 µg/mL,350 to 1000
